Patent publication US12398154B2, “Azaquinazoline pan-KRas inhibitors” (Mirati Therapeutics, Inc., priority 2020, dated 2025)

Columns and labels:
[1] = target: KRas G12D (Homo sapiens, UniProt P01116, G12D); test: biochemical;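 also: TR-FRET displacement binding assay on KRas, read after a one-hour incubation at room temperature, IC50 fitted from percent-of-control values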
Description: (§1) The ability of a compound to bind to KRas was measured using a TR-FRET displacement assay. […] After a 60-minute incubation at room temperature, the reaction was measured using a BMG LABTECH CLARIO star Plus via TR-FRET. […] The POC values were fit to a 4-parameter IC50 equation and the IC50 value reported.

[2] = target: KRas G12V (Homo sapiens, UniProt P01116, G12V); test: biochemical;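 also: KRas binding measured by TR-FRET displacement at room temperature, IC50 fitted from percent of control values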
Sequence of KRas G12V (P01116 1-169 isoform P01116-2 G12V): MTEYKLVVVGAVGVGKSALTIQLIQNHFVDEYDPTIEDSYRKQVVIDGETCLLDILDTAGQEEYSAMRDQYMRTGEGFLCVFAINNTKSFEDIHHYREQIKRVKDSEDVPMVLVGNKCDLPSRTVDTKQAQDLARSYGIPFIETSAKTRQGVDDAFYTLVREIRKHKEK
Description: as §1

[3] = target: KRas G12R (Homo sapiens, UniProt P01116, G12R); test: biochemical;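 also: TR-FRET displacement assay of compound binding to KRas, read after one hour at room temperature, potency from a four-parameter fit of percent-of-control values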
Sequence of KRas G12R (P01116 1-169 isoform P01116-2 G12R): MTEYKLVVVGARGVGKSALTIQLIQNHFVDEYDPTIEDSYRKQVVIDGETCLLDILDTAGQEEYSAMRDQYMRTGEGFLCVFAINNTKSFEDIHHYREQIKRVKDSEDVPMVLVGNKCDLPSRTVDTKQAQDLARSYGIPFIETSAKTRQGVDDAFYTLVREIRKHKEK
Description: as §1

[4] = test system: pERK in MKN1 cells; test: Inhibition of KRas phosphorylation of ERK (Cisbio HTRF pERK assay); details: Homo sapiens, MKN-1, 3 h, read-out: Inhibition (HTRF IC50) of KRas-mediated Phosphorylation of ERK, MKN1
[5] = test system: pERK in PSN1 cells; test: as above; details: Homo sapiens, PSN1, 3 h, read-out: Inhibition (HTRF IC50) of KRas-mediated Phosphorylation of ERK, PSN1
[6] = test system: pERK in ASPC1 cells; test: as above; details: Homo sapiens, ASPC1, read-out: Inhibition (HTRF IC50) of KRas-mediated Phosphorylation of ERK, AsPC-1
[7] = test system: pERK in H727 cells; test: as above; details: Homo sapiens, NCI-H727, read-out: Inhibition (HTRF IC50) of KRas-mediated Phosphorylation of ERK, H727
[8] = test system: pERK in A549 cells; test: as above; details: Homo sapiens, A549, read-out: Inhibition (HTRF IC50) of KRas-mediated Phosphorylation of ERK, A549
Description: To harvest cells from flask using 0.05% Trypsin/EDTA solution. Add 10 mL of media to stop trypsinizing. Pipette the cells into a conical bottom 50 mL centrifuge tube and centrifuge 5 min×1000 rpm. • 2. Re-suspend the cell pellet in media, take a cell count, and then adjust the cell density using fresh media. • 3. Seed 6,000 cells into cell culture plate with 50 μL media. […] Incubate cell plate overnight in a 37° C., 5% CO2 incubator. • Compound titrations • 1. Use Tecan to complete the compound addition. Compounds start from 10 uM top, 3-fold dilution, and 10 doses. The final DMSO concentration is 0.8%. Dispensed 0.2 uM Trametinib as Min control. • 2. Incubate cell plate for 3 hrs in the incubator. • Detection with cisbio pERK HTRF kit • 1. […] At the end of the compound treatment, flick-off the media. • 3. Add 35 μL of lysis buffer per well using a Multidrop Combi. Then place on a plate agitator shaking at 300 rpm at 4° C. for 40 mins. • 4. Make up the HTRF antibody buffer. For each assay plate, mix 50 μL of d2-conjugate antibody with 950 μL of detection buffer. Similarly, mix 50 μL of Cryptate antibody with 950 μL of detection buffer. Then mix the two diluted antibodies together. • 5. Dispense 3.4 μL the antibody buffer to wells of an empty assay plate. Seal the plate and centrifuge plate 30 sec×1000 rpm. • 6. At the end of the 4° C. lysis, centrifuge the lysate plates 3 mins×1500 rpm. • 7. Use the Bravo to transfer 13.6 μL of lysate from cell culture plate to assay plate.
Then incubate assay plate for 2 hrs at room temperature. […] At the end of incubation, read plate on the Envision after centrifuging plate 30 sec× • 1000 rpm.

[9] = test system: pERK in H460 cells; test: as above; details: Homo sapiens, NCI-H460, read-out: Inhibition (HTRF IC50) of KRas-mediated Phosphorylation of ERK, H460
[10] = test system: pERK in HCT116 cells; test: as above; details: Homo sapiens, HCT-116, read-out: Inhibition (HTRF IC50) of KRas-mediated Phosphorylation of ERK, HCT116
[11] = test system: pERK in H358 cells; test: as above; details: Homo sapiens, NCI-H358, read-out: Inhibition (HTRF IC50) of KRas-mediated Phosphorylation of ERK, H358

Sequence of KRas G12D (P01116 1-169 isoform P01116-2 G12D): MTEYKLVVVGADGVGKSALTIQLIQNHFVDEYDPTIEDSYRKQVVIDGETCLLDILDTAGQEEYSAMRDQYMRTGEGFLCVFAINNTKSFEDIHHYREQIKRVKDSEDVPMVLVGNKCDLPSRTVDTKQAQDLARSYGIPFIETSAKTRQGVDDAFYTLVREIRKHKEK

SMILES | IC50 [1] [nM] | IC50 [2] [nM] | IC50 [3] [nM] | IC50 [4] [nM] | IC50 [5] [nM] | IC50 [6] [nM] | IC50 [7] [nM] | IC50 [8] [nM] | IC50 [9] [nM] | IC50 [10] [nM] | IC50 [11] [nM]
CCc1c(F)ccc2cc(O)cc(-c3ncc4c(N5CCCn6nc(NC)cc6C5)nc(OC[C@@]56CCCN5C[C@H](F)C6)nc4c3F)c12 [Example 340, 5-ethyl-6-fluoro-4-(8-fluoro-2-(((2R,7aS)-2-fluorohexahydro-1H-pyrrolizin-7a-yl)methoxy)-4-(2-(methylamino)-7,8-dihydro-4II-pyrazolo[1,5-a][1,4]diazepin-5(6H)-yl)pyrido[4,3-d]pyrimidin-7-yl)naphthalen-2-ol] | ≤ 2 | ≤ 2 | ≤ 2 | 26 | ≥ 10000 | 39 | 149 | 353 | 373 | 999 | 55
CCc1c(F)ccc2cc(O)cc(-c3ncc4c(N5CCCSCC5)nc(OC[C@@]56CCCN5C[C@H](F)C6)nc4c3F)c12 [Example 342, 5-ethyl-6-fluoro-4-(8-fluoro-2-(((2R,7aS)-2-fluorohexahydro-1H-pyrrolizin-7a-yl)methoxy)-4-(1,4-thiazepan-4-yl)pyrido[4,3-d]pyrimidin-7-yl)naphthalen-2-ol] | 3 | ≤ 2 | ≤ 2 | 4 | 2240 | 23 | 46 | 167 | 203 | 470 | 62
CCc1c(F)ccc2cc(O)cc(-c3ncc4c(N5CCCOC(CO)C5)nc(OC[C@@]56CCCN5C[C@H](F)C6)nc4c3F)c12 (stereo partly drawn) [Example 343, 5-ethyl-6-fluoro-4-(8-fluoro-2-(((2R,7aS)-2-fluorotetrahydro-1H-pyrrolizin-7a(5H)-yl)methoxy)-4-(2-(hydroxymethyl)-1,4-oxazepan-4-yl)pyrido[4,3-d]pyrimidin-7-yl)naphthalen-2-ol] | ≤ 2 | ≤ 2 | ≤ 2 | 4 | 5930 | 60 | 24 | 91 | 128 | 128 | 7
CCc1c(F)ccc2cc(O)cc(-c3ncc4c(N5CCCc6nn(C(=O)N(C)C)cc6C5)nc(OC[C@@]56CCCN5C[C@H](F)C6)nc4c3F)c12 [Example 353, 5-(7-(8-ethyl-7-fluoro-3-hydroxynaphthalen-1-yl)-8-fluoro-2-(((2R,7aS)-2-fluorohexahydro-1H-pyrrolizin-7a-yl)methoxy)pyrido[4,3-d]pyrimidin-4-yl)-N,N-dimethyl-5,6,7,8-tetrahydropyrazolo[4,3-c]azepine-2(4H)-carboxamide] | ≤ 2 | ≤ 2 | ≤ 2 | 24 | 4810 | 7 | 34 | 80 | 149 | 396 | 19
CCc1c(F)ccc2cc(O)cc(-c3ncc4c(N5CCCn6nc(C(=O)N7CCOCC7)cc6C5)nc(OC[C@@]56CCCN5C[C@H](F)C6)nc4c3F)c12 [Example 354, (5-(7-(8-ethyl-7-fluoro-3-hydroxynaphthalen-1-yl)-8-fluoro-2-(((2R,7aS)-2-fluorohexahydro-1H-pyrrolizin-7a-yl)methoxy)pyrido[4,3-d]pyrimidin-4-yl)-5,6,7,8-tetrahydro-4H-pyrazolo[1,5-a][1,4]diazepin-2-yl)(morpholino)methanone] | ≤ 2 | ≤ 2 | ≤ 2 | 14 | ≥ 10000 | 14 | 48 | 65 | 304 | 623 | 17
CCc1c(F)ccc2cc(O)cc(-c3ncc4c(N5CCCn6nc(C(=O)N7CCCC7)cc6C5)nc(OC[C@@]56CCCN5C[C@H](F)C6)nc4c3F)c12 [Example 355, (5-(7-(8-ethyl-7-fluoro-3-hydroxynaphthalen-1-yl)-8-fluoro-2-(((2R,7aS)-2-fluorohexahydro-1H-pyrrolizin-7a-yl)methoxy)pyrido[4,3-d]pyrimidin-4-yl)-5,6,7,8-tetrahydro-4H-pyrazolo[1,5-a][1,4]diazepin-2-yl)(pyrrolidin-1-yl)methanone] | ≤ 2 | ≤ 2 | ≤ 2 | 17 | 6770 | 8 | 30 | 140 | 270 | 471 | 16
CCNC(=O)c1cc2n(n1)CCCN(c1nc(OC[C@@]34CCCN3C[C@H](F)C4)nc3c(F)c(-c4cc(O)cc5ccc(F)c(CC)c45)ncc13)C2 [Example 356, N-ethyl-5-(7-(8-ethyl-7-fluoro-3-hydroxynaphthalen-1-yl)-8-fluoro-2-(((2R,7aS)-2-fluorohexahydro-1H-pyrrolizin-7a-yl)methoxy)pyrido[4,3-d]pyrimidin-4-yl)-5,6,7,8-tetrahydro-4H-pyrazolo[1,5-a][1,4]diazepine-2-carboxamide] | ≤ 2 | ≤ 2 | ≤ 2 | 40 | 9300 | 16 | 63 | 232 | 458 | 767 | 20
CCc1c(F)ccc2cc(O)cc(-c3ncc4c(N5CCCn6nc(C(=O)NC(C)C)cc6C5)nc(OC[C@@]56CCCN5C[C@H](F)C6)nc4c3F)c12 [Example 357, 5-(7-(8-ethyl-7-fluoro-3-hydroxynaphthalen-1-yl)-8-fluoro-2-(((2R,7aS)-2-fluorohexahydro-1H-pyrrolizin-7a-yl)methoxy)pyrido[4,3-d]pyrimidin-4-yl)-N-isopropyl-5,6,7,8-tetrahydro-4H-pyrazolo[1,5-a][1,4]diazepine-2-carboxamide] | ≤ 2 | ≤ 2 | ≤ 2 | 71 | 7480 | 13 | 63 | 576 | 805 | 1350 | 27
CCc1c(F)ccc2cc(O)cc(-c3ncc4c(N5CCCn6nc(C(=O)N(C)CC)cc6C5)nc(OC[C@@]56CCCN5C[C@H](F)C6)nc4c3F)c12 [Example 358, N-ethyl-5-(7-(8-ethyl-7-fluoro-3-hydroxynaphthalen-1-yl)-8-fluoro-2-(((2R,7aS)-2-fluorotetrahydro-1H-pyrrolizin-7a(5H)-yl)methoxy)pyrido[4,3-d]pyrimidin-4-yl)-N-methyl-5,6,7,8-tetrahydro-4H-pyrazolo[1,5-a][1,4]diazepine-2-carboxamide] | ≤ 2 | ≤ 2 | ≤ 2 | 4 | 9770 | 12 | 15 | 44 | 131 | 167 | 3
CCc1c(F)ccc2cc(O)cc(-c3ncc4c(N5CCOC[C@@](C)(O)C5)nc(OCC5(CN(C)C)CC5)nc4c3F)c12 [Example 361, (S)-4-(2-((1-((dimethylamino)methyl)cyclopropyl)methoxy)-7-(8-ethyl-7-fluoro-3-hydroxynaphthalen-1-yl)-8-fluoropyrido[4,3-d]pyrimidin-4-yl)-6-methyl-1,4-oxazepan-6-ol] | ≤ 2 | ≤ 2 | ≤ 2 | 3 | 6820 | 8 | 49 | 122 | 85 | 231 | 17
CCc1c(F)ccc2cc(O)cc(-c3ncc4c(N5CCC[C@@](C)(O)C5)nc(OC[C@]56CCCN5[C@@H](COC(=O)N(C)C)CC6)nc4c3F)c12 [Example 362, ((3R,7aR)-7a-(((7-(8-ethyl-7-fluoro-3-hydroxynaphthalen-1-yl)-8-fluoro-4-((R)-3-hydroxy-3-methylpiperidin-1-yl)pyrido[4,3-d]pyrimidin-2-yl)oxy)methyl)hexahydro-1H-pyrrolizin-3-yl)methyl dimethylcarbamate] | 3 | 3 | 4 | 37 | 5130 | 73 | 313 | 629 | 404 | 763 | 113
